Data reported in patent US20130059783A1, “COMPOSITIONS AND METHODS FOR EXPANDING BFU-E CELLS” (priority 2010, published 2013).

Tests used:
[1] = tested on: Lin-Sca-1-c-kit+ bone marrow progenitor population; experiment: SFELE culture of Lin neg, c-kit pos, Sca-1 neg bone marrow cells; assay type: cell-based, mouse; settings: for Enhancement of proliferation by DMOG above the effect of Dex: bone marrow cells, 333 μM DMOG
Description: FIGS. 5A-5C. […] Total cell number was counted daily and normalized to the number of cells added to the culture. (n=4). Error bars show one standard deviation.
In the bone marrow BFU-E cells are found in the Lin^neg, c-kit^pos, Sca-1^neg fraction; this cell population contains mostly a mix of lineage restricted progenitor cells of which a minority are BFU-Es (Pronk et al., 2007).

BFU-E cells [2] = experiment: Serum free erythroid liquid expansion (SFELE) progenitor growth assay of sorted BFU-E cells; assay type: cell-based, mouse
Protocol: (§1) FIGS. 1A-1F. […] Error bars show one standard deviation. […] Error bars show one standard deviation. […] Shown is the fraction of c-kit+ cells after 72 hours. […] Cell numbers in each clone were estimated under the microscope on Day 8.
(§2) FIGS. 3A-3B. […] The experimental protocol was similar to that used in FIGS. 1A and B except that the CFU-E and BFU-E cells were purer (CD71 and CD24a^20% high and CD71 and CD24a^10% low, respectively). […] (A) Proliferation of sorted CFU-E cells. […] Error bars show one standard deviation. (B) Proliferation of sorted BFU-E cells. […] Error bars show one standard deviation.
FIG. 4. […] Cells were counted from day 4 until the day cell counts dropped.
(A) The total number of cells formed from 1000 BFU-E cells at different time points. […] Standard deviation between four separate biological experiments is shown in parenthesis (n/d=not determined).
(§3) We developed a modified version of the serum free erythroid liquid expansion culture (SFELE) medium described by Dolzning et al. (Dolznig et al., 2006).

BFU-E cells [3] = experiment: Colony forming assays of sorted BFU-E fractions (Table S2); assay type: cell-based, mouse; settings: CD71/CD24a 10% low cells, 100 nM Dex and/or 333 μM DMOG
Description: Separation of BFU-E and CFU-E cells by expression of CD71, CD24a or both CD71 and CD24a. C-kit positive BFU-E and CFU-E cells were sorted from FLEP cells based on expression of CD71, CD24a or both CD71 and CD24a. In all experiments the BFU-E fraction was the subset of c-kit^positive FLEP cells with the 10% lowest expression of CD71 and/or CD24a, while the CFU-E fraction was the subset with 20% highest expression of CD71 and/or CD24a. Sorted BFU-E and CFU-E populations were subjected to colony forming assays under two different conditions. […] The number of CFU-E colonies (±standard deviation) is shown. The sorted “BFU-E” populations mostly formed small CFU-E clusters rather than single CFU-E colonies in these assays. These CFU-E clusters are formed by precursors to CFU-Es and were scored separately as multi-CFU-Es. The number of “multi-CFU-Es” is not shown since these cells likely represent the same cells as those forming small BFU-E colonies.
The potential of the sorted cells to form large BFU-E, small BFU-E, CFU-G/M/Mk, and CFU-GEMM colonies (±standard deviation) was determined by a second assay in methyl cellulose containing 10U Epo, 20 nM IL-3, 20 nM IL-6 and 50 nM SCF per mL, and was scored at day 8-9. […] To determine the effect of DMOG, colony assays of sorted BFU-E (CD71 and CD24a^10% low) cells were also performed in the presence of 333 μM DMOG. In agreement with the finding that DMOG enhances BFU-E self-renewal BFU-E colonies were larger with a more immature appearance in the presence of DMOG and Dex. Therefore, in the presence of DMOG and Dex most BFU-E colonies were scored as “large BFU-Es.”
No GEMM colonies were formed (Table S2).
(§4) Colonies were scored after 3 days. […] The number of hemoglobinized early BFU-E and late BFU-E colonies was determined after 8-9 days following staining with 2,7-Diaminofluorene (Sigma Chemical, St. Louis, Mo.).

[4] = tested on: human peripheral blood erythroid progenitors; experiment: Erythroblast formation from human mobilized peripheral blood CD34+ cells; assay type: cell-based; settings: 100 μM DMOG with 1 nM Dex, human CD34+ derived progenitors
Protocol: FIG. 6. […] Human mobilized CD34+ cells were first thawed and cultured in serum free medium supplemented with StemSpan® CC100 cytokine mix containing rhSCF, rhFlt-3L, rhIL-3 and rhIL-6 for 5 days. […] Total cell number was counted every other day until cell numbers dropped at day 5+19. More than 95% of cells at the end of the culture have erythroblast morphology (data not shown). […] Error bars show one standard deviation.
An experiment was performed on human hematopoietic progenitor cells from mobilized peripheral blood CD34+ cells that were first cultured 5 days in serum-free medium containing rhSCF, rhFlt-3L, rhIL-3 and rhIL-6. […] Similarly to the murine cultures >95% of cells at the end of the culture are erythroblasts (data not shown).

CFU-E cells = experiment: SFELE progenitor growth assay of sorted CFU-E cells; assay type: cell-based, mouse; settings: CD71 and CD24a 20% high cells, 100 nM Dex and/or 333 μM DMOG
Protocol: as §1, §2, §3

BFU-E cells [5] = experiment: CFU-E and BFU-E colony forming assays of BFU-E cells cultured in SFELE medium; assay type: cell-based, mouse; settings: for Total colony numbers from 1,000 "BFU-E" cells: CFU-E 1 cluster / Total colony numbers from 1,000 "BFU-E" cells: large BFU-E >20 clusters / Total colony numbers from 1,000 "BFU-E" cells: small BFU-E 5-20 clusters: CD24 and CD71 10% low BFU-E cells, SFELE, 100 nM Dex and/or 333 μM DMOG
Protocol: Dexamethasone prevents BFU-E cell exhaustion, which allows more CFU-E cells to be formed. […] (A) The total number of cells formed from 1000 BFU-E cells at different time points. […] Standard deviation between four separate biological experiments is shown in parenthesis (n/d=not determined).
At daily intervals colony assays were performed (Table 2). As in the experiment in FIG. 3, for the first three days the total number of cells increased at the same rate in all cultures.
as §4

FIH = FIH (Homo sapiens, UniProt Q9NWT6); settings: cited from earlier work
Sequence of FIH (Q9NWT6 whole entry): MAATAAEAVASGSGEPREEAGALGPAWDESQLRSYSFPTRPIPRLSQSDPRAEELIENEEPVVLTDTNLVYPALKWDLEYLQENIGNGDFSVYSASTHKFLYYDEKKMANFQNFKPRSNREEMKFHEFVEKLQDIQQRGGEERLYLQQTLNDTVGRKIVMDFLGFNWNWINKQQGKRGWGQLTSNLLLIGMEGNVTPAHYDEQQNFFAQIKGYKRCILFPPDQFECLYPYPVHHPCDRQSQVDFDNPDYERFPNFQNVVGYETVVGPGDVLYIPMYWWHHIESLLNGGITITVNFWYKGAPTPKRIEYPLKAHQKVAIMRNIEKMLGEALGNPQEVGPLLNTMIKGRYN

HIF prolyl hydroxylase = settings: cited from earlier work
[6] = 333 μM DMOG and/or 100 nM Dex versus no additions
[7] = Day 3 of culture, 100 nM Dex or 333 μM DMOG alone

COC(=O)CNC(=O)C(=O)OC [DMOG, dimethyloxalylglycine]
Effect on proliferation of bone marrow cells ([1]; 333 μM DMOG alone, 1 nM and 100 nM Dex): little if any effect | Enhancement of proliferation by DMOG above the effect of Dex ([1]; 1 nM Dex): 2.1 fold | Enhancement of proliferation by DMOG above the effect of Dex ([1]; 10 nM Dex (so in the source)): 2.4 fold | Relative increase in total erythroblast output per BFU-E (BFU-E cells [2]; [6]): 2.5 fold | Enhancement of BFU-E proliferation by DMOG (BFU-E cells [2]; 333 μM DMOG with 10 nM Dex): 10 fold | Increase by DMOG of BFU-E proliferation in the presence of Dex (BFU-E cells [2]; 333 μM DMOG with 100 nM Dex versus Dex alone): 7.3 fold | Increase of total number of cells after the first three days (BFU-E cells [2]; CD24 and CD71 10% low BFU-E cells, 100 nM Dex and/or 333 μM DMOG): remained constant | Total cell expansion from 1000 "BFU-E" cells, liquid culture (BFU-E cells [2]; CD24 and CD71 10% low BFU-E cells, SFELE, 100 nM Dex and/or 333 μM DMOG, day 1): 4,200 | Total cell expansion from 1000 "BFU-E" cells, liquid culture (BFU-E cells [2]; CD24 and CD71 10% low BFU-E cells, SFELE, 100 nM Dex and/or 333 μM DMOG, day 2): 26,000 | Total cell expansion from 1000 "BFU-E" cells, liquid culture (BFU-E cells [2]; CD24 and CD71 10% low BFU-E cells, SFELE, 100 nM Dex and/or 333 μM DMOG, day 3): 130,000 | Total cell expansion from 1000 "BFU-E" cells, liquid culture (BFU-E cells [2]; CD24 and CD71 10% low BFU-E cells, SFELE, 100 nM Dex and/or 333 μM DMOG, day 4): 430,000 | Total cell expansion from 1000 "BFU-E" cells, liquid culture (BFU-E cells [2]; CD24 and CD71 10% low BFU-E cells, SFELE, 100 nM Dex and/or 333 μM DMOG, day 5): 820,000 | Total cell expansion from 1000 "BFU-E" cells, liquid culture (BFU-E cells [2]; CD24 and CD71 10% low BFU-E cells, SFELE, 100 nM Dex and/or 333 μM DMOG, day 6): 890,000 | Total cell expansion from 1000 "BFU-E" cells, liquid culture (BFU-E cells [2]; CD24 and CD71 10% low BFU-E cells, SFELE, 100 nM Dex and/or 333 μM DMOG, day 7): 1,200,000 | Total cell expansion from 1000 "BFU-E" cells, liquid culture (BFU-E cells [2]; CD24 and CD71 10% low BFU-E cells, SFELE, 100 nM Dex and/or 333 μM DMOG, day 8): 1,200,000 | Increase of proliferation of sorted BFU-E cells (BFU-E cells [2]; CD71 and CD24a 10% low cells, SFELE, 100 nM Dex and/or 333 μM DMOG, versus no additions): 2 fold | CFU-E colonies (BFU-E cells [3]): 21 (±11) colonies per 1000 plated cells | CFU-G/M/Meg colonies (BFU-E cells [3]): 5 (±6) colonies per 1000 plated cells | GEMM colonies (BFU-E cells [3]): 0 colonies per 1000 plated cells | large BFU-E colonies (BFU-E cells [3]): 164 (±23) colonies per 1000 plated cells | small BFU-E colonies (BFU-E cells [3]): 243 (±30) colonies per 1000 plated cells | Erythroblasts formed relative to cultures with Dex alone [4]: ~10 times | Increase of proliferation of sorted CFU-E cells (CFU-E cells): do not significantly increase proliferation | Relative increase in CFU-E output per BFU-E (BFU-E cells [5]; [6]): 2.1 fold | Total colony numbers from 1,000 "BFU-E" cells: CFU-E 1 cluster (BFU-E cells [5]; day 0 (before culture)): 30 (±11) | Total colony numbers from 1,000 "BFU-E" cells: large BFU-E >20 clusters (BFU-E cells [5]; day 0 (before culture)): 423 (±31) | Total colony numbers from 1,000 "BFU-E" cells: small BFU-E 5-20 clusters (BFU-E cells [5]; day 0 (before culture)): 262 (±64) | Total colony numbers from 1,000 "BFU-E" cells: CFU-E 1 cluster (BFU-E cells [5]; day 1): 637 (±227) | Total colony numbers from 1,000 "BFU-E" cells: large BFU-E >20 clusters (BFU-E cells [5]; day 1): 428 (±72) | Total colony numbers from 1,000 "BFU-E" cells: small BFU-E 5-20 clusters (BFU-E cells [5]; day 1): 1,284 (±683) | Total colony numbers from 1,000 "BFU-E" cells: CFU-E 1 cluster (BFU-E cells [5]; day 2): 6,991 (±1,226) | Total colony numbers from 1,000 "BFU-E" cells: large BFU-E >20 clusters (BFU-E cells [5]; day 2): 217 (±33) | Total colony numbers from 1,000 "BFU-E" cells: small BFU-E 5-20 clusters (BFU-E cells [5]; day 2): 3,232 (±1,416) | Total colony numbers from 1,000 "BFU-E" cells: CFU-E 1 cluster (BFU-E cells [5]; day 3): 23,685 (±5,919) | Total colony numbers from 1,000 "BFU-E" cells: large BFU-E >20 clusters (BFU-E cells [5]; day 3): 156 (±69) | Total colony numbers from 1,000 "BFU-E" cells: small BFU-E 5-20 clusters (BFU-E cells [5]; day 3): 4,399 (±2,039) | Total colony numbers from 1,000 "BFU-E" cells: CFU-E 1 cluster (BFU-E cells [5]; day 4): 27,530 (±13,756) | Total colony numbers from 1,000 "BFU-E" cells: CFU-E 1 cluster (BFU-E cells [5]; day 5): 26,730 (±9,557) | Total colony numbers from 1,000 "BFU-E" cells: large BFU-E >20 clusters (BFU-E cells [5]; day 5): 0 | Total colony numbers from 1,000 "BFU-E" cells: small BFU-E 5-20 clusters (BFU-E cells [5]; day 5): 1,000 (±365) | Total colony numbers from 1,000 "BFU-E" cells: CFU-E 1 cluster (BFU-E cells [5]; day 6): 9,598 (±8,627) | BFU-Es per plated BFU-E (BFU-E cells [5]; [7]): 4.8 | CFU-Es per plated BFU-E (BFU-E cells [5]; [7]): 24

O=C(O)C(=O)N[C@H](Cc1ccccc1)C(=O)O [N-oxalyl-d-phenylalanine]
Inhibition of FIH (FIH): inhibit the FIH | Inhibition of a HIF prolyl hydroxylase (HIF prolyl hydroxylase): not a HIF prolyl hydroxylase
